One data set relates to Caco-2 cells. In words: Quantitative proteomic analysis (DIA LC-MS/MS) of Caco-2 cells. The data set is classed as cell-based, human. Particulars: Caco-2, 1 h. The method, then: For Western blot experiments, cells were seeded in 12-well plates (Merck, Schaffhausen, Switzerland) at a density of 50′000 cells/cm^2. For the proteomic experiments, the cells were seeded in T10 flasks (Merck, Schaffhausen, Switzerland) at the same initial seeding density. After 7 days and two washes with warm phosphate buffered saline (PBS, Thermofisher, Waltham, MA, USA), the conditions were applied for 1 h. Peptides were applied at a concentration between 20 and 100 μM. A chemical inhibitor of PKC ζ was also tested. The molecule 4f was used at a concentration of 10 μM in 0.1% DMSO as a positive control. All dilutions were done in 0.9% saline solution. After incubation, cells for Western blot experiments were lysed with RIPA buffer (Cell signalling, Danvers, MA, USA) containing protease and phosphatase inhibitors (Roche, Basel, Switzerland). After centrifugation to discard cell components, the samples were stored at −20 °C. Cells for proteomic analysis were detached with trypsin, washed 3 times with PBS and kept at −80 °C until analysis. Samples for proteomic analysis were produced in triplicate for each condition.
Cell pellets were resuspended in 100 μL of 0.1% RapiGest Surfactant (Waters, Milford, MA, USA) in 50 mM ammonium bicarbonate (AB). Samples were heated for 5 min at 100 °C. Lysis was performed by sonication (6 × 30 s) at 70% amplitude and 0.5 pulse. Samples were kept 30 s on ice between each cycle of sonication. Samples were centrifuged for 10 min at 14′000×g. Protein concentration was measured by Bradford assay and 25 μg of each sample was subjected to protein digestion as follows: the sample volume was adjusted to 100 μL with 0.1% RapiGest in 50 mM AB. 2 μL of 50 mM dithioerythritol (DTE) were added and the reduction was carried out at 60 °C for 1h. Alkylation was performed by adding 2 μL of iodoacetamide 400 mM during 1 h at room temperature in the dark. Overnight digestion was performed at 37 °C with 5 μL of freshly prepared trypsin (Promega AG, Dübendorf, Switzerland) in 50 mM AB at a concentration of 0.2 μg/μL. To remove RapiGest, samples were acidified with trifluoroacetic acid (TFA), heated at 37 °C for 45 min and centrifuged 10 min at 17′000×g. Supernatants were then desalted with a C18 microspin column (Harvard Apparatus, Holliston, MA, USA) according to the manufacturer's instructions, completely dried under speed-vacuum and stored at −20 °C.
Samples were diluted at 1 μg/μL with loading buffer (5% CH3CN, 0.1% FA). Biognosys iRT peptides were added to each sample and 2 μg of peptides were injected onto the column. LC-ESI-MS/MS was performed on an Orbitrap Fusion Lumos Tribrid mass spectrometer (Thermo Scientific, San Jose, CA, USA) equipped with an Easy nLC1200 liquid chromatography system (Thermo Scientific, San Jose, CA, USA). Peptides were trapped on an Acclaim pepmap100, C18, 3 μm, 75 μm × 20 mm nano trap-column (Thermofisher) and separated on a 75 μm × 500 mm, C18 ReproSil-Pur (Dr. Maisch GmbH, Ammerbuch, Germany), 1.9 μm, 100 Å, custom-made column. The analytical separation was run for 135 min using a gradient of H2O/FA 99.9%/0.1% (solvent A) and CH3CN/H2O/FA 80.0%/19.9%/0.1% (solvent B). The gradient was run from 8% B to 28% B in 110 min, then to 42% B in 25 min, then to 95%B in 5 min with a final stay of 20 min at 95% B. Flow rate was of 250 nL/min a total run time was of 160 min. Data-Independent Acquisition (DIA) was performed with MS1 full scan at a resolution of 60,000 (FWHM) followed by 30 DIA MS2 scan with fix windows. MS1 was performed in the Orbitrap with an automatic gain control (AGC) target of 1 × 10^6, a maximum injection time of 50 ms and a scan range from 400 to 1240 m/z. DIA MS2 was performed in the Orbitrap using higher-energy collisional dissociation (HCD) at 30%. Isolation window was set to 28 m/z with an AGC target of 1 × 10^6 and a maximum injection time of 54 ms. […]

In data set [1] the test system is ZO-1 expression in Caco-2 cells. In words: Immunoblot of total protein extracts from Caco-2 cells, ZO-1. It counts as cell-based, human. To be noted: Caco-2, 1 h, peptides 50 μM, In 10 μM, normalised to actin. The protocol: (§1) Caco-2 cells (ATCC, Manassas, VA, USA) were cultured in T75 flasks (Merck, Schaffhausen, Switzerland). The cells were incubated at 37 °C and a humidified atmosphere containing 5% of CO2. The medium containing 10% fetal bovine serum (FBS, Thermofisher, Waltham, MA, USA) was changed every 2–3 days. The Caco-2 cells were passaged every 5 days. The passage numbers were between 33 and 36.
(§2) For Western blot experiments, cells were seeded in 12-well plates (Merck, Schaffhausen, Switzerland) at a density of 50′000 cells/cm^2. For the proteomic experiments, the cells were seeded in T10 flasks (Merck, Schaffhausen, Switzerland) at the same initial seeding density. After 7 days and two washes with warm phosphate buffered saline (PBS, Thermofisher, Waltham, MA, USA), the conditions were applied for 1 h. Peptides were applied at a concentration between 20 and 100 μM. A chemical inhibitor of PKC ζ was also tested. The molecule 4f was used at a concentration of 10 μM in 0.1% DMSO as a positive control. […]
(§3) 50 μg cell extracts and p-threonine proteins were separated by SDS-polyacrylamide gel electrophoresis (4–15%) (Bio-Rad, Hercules, CA, USA) and transferred to nitrocellulose membrane. […] These primary antibodies were then recognized by anti-mouse and anti-rabbit antibodies (Li-Cor Biosciences, Lincoln, NE, USA) and detected by Odyssey® imaging system (Li-Cor Biosciences). […]
For orientation: Immunoblotting shows a protein as a band on a membrane.

Data set [2] concerns occludin expression in Caco-2 cells. Nature of the data set: Immunoblot of total protein extracts from Caco-2 cells, occludin. It counts as cell-based, human. To be noted: Caco-2, 1 h, peptides 50 μM, In 10 μM. The method, then: as §1, §2, §3
For data set [3] the following is noted: previous studies; cited from earlier work. The source says: Previous studies have shown that ZIP is not specifically and competitively inhibiting PKC ζ phosphorylation of some TJ proteins (occludin and ZO-1). The structural similarities of the PS of the PKC family does explain this non-specificity. Therefore, L-R5 would also be competitive with other PKCs and would interfere with most intracellular mechanisms involving PKCs. […] Given the absence o ...

Data set [4] deals with protein kinase C zeta (PKC ζ) (not stated (only the C-terminal fragment is called human)) (UniProt Q05513). Nature of the data set: MST; labelled PKC ζ fixed at 30 nM; occludin in serial dilution 0-11300 nM; L-R5 present as competitor at a fixed 1.25 mM; Tris buffer pH 7.4; hydrophilic capillaries.
Data set [5] shares this target. Nature of the data set: MST; PKC ζ labelled by RED-Tris-NTA on its His tag, fixed (20 nM with L-R5 at 0-4000 μM; 30 nM with occludin at 0-35000 nM); ligand in serial dilution; Tris buffer pH 7.4; hydrophilic capillaries; 20%, 40% and 80% MST power.
For another data set, the target named is T1, occludin (UniProt Q16625 1-522).
T1 chain: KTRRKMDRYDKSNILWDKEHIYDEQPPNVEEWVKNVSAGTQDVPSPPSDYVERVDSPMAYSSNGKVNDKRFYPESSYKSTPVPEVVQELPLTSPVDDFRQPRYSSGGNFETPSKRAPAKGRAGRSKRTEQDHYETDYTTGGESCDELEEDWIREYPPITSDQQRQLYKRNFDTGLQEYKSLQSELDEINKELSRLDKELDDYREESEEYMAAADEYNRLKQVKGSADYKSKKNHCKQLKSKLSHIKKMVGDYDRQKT
Nature of the data set: MST; occludin labelled by RED-Tris-NTA on its His tag, fixed at 50 nM; L-R5 in serial dilution 0-25000 μM; Tris buffer pH 7.4; hydrophilic capillaries; 20%, 40% and 80% MST power. Particulars: both partners purified.

For data set [6], the target named is T2, PKC ζ-occludin interaction (Homo sapiens, UniProt Q16625).
T2 construct: purchased Eurofins pharma (PKC ζ); occludin source not clearly printed (probably RayBiotech); host or cells: Sf21 insect cells (PKC ζ)
T2 sequence (Q16625 266-522 limits assumed): T1 chain
Nature of the data set: Microscale thermophoresis (MST), interaction between PKC ζ and occludin, without and with L-R5 as competitor. The data set is classed as binding. Particulars: labelled PKC ζ 30 nM, occludin as ligand 0-35 μM, no competitor, Tris buffer pH 7.4, n = 2. The method, then: The protein construct of PKC ζ active (recombinant enzyme expressed in Sf21 insect cells) was purchased from Eurofins pharma (Dundee, United Kingdom) and the recombinant human […] was purchased from RayBiotech (Peachtree Corners, GA, USA). Fluorescent labelling of both, PKC ζ and occludin was performed following the protocol of coupling the His-tag labelling kit RED-Tris-NTA 2nd generation (Nanotemper Technologies, Munich, Germany) to their respective histidine tail. The fluorescence of the tagged proteins was then measured with the monolith NT.115 microscale thermophoresis instrument (Nanotemper Technologies, Munich, Germany). An excitation LED of 100% was set for the Cap. Scan. The predicted optimal dilution was then calculated to obtain a final fluorescence signal of 100 Raw fluorescence [counts].
Hydrophilic capillaries were used for the different tests because the samples interacted with standard capillaries. […] The different solutions were analysed by MST at 20%, 40% and 80% MST power with a 100% LED intensity. […] The results and Kd values were analysed by MO.affinity analysis 3 software (Nanotemper Technologies, Munich, Germany).
Microscale thermophoresis is a method used to quantify the affinity between two molecules (e.g., proteins) by increasing the concentration of the ligand while keeping the concentration of the target fixed. […]
In general terms: In MST a laser heats a spot of the sample, and binding alters the fluorescence response.

Ends that are not written are not given here. Peptide text beside a SMILES is read from it. * marks the point of attachment. Myristoyl = CCCCCCCCCCCCCC(=O)*

The term Kd denotes the free concentration of one partner at which half of the binding sites on the other are occupied at equilibrium, for simple one-to-one binding.

As to `CC(C)(C)C1=NN(c2cccc(Cl)c2)C(c2ccc(F)c(O)c2)C1` (centres unmarked) [In, 5-(3-(tert-Butyl)-1-(3-chlorophenyl)-4,5-dihydro-1H-pyrazol-5-yl)-2-fluorophenol], in the data set on Caco-2 cells (L-R5 50 μM or In 10 μM, n = 3), the “number of downregulated proteins versus control (log 2 (FC) < 0)” value came out at 10 proteins and the “number of upregulated proteins versus control (log 2 (FC) ≥ 0)” value is given as 6 proteins. Besides, in the data set on Caco-2 cells (L-R5 50 μM or In 10 μM, p ≤ 0.05, n = 3), the “number of significantly differentially expressed proteins versus control” value was 16 proteins. Besides, in the data set with Caco-2 cells (L-R5 50 μM, In 10 μM, n = 3), the “expression of E1A binding protein p300 (proteomics)” value is reported as “significantly decreased”, the “expression of ZO-1 (proteomics)” value is reported as “no impact” and the “expression of occludin (proteomics)” value is “no impact”. In addition, in data set [1], the “expression of ZO-1 (Western blot)” value is given as “no effect”. In addition, the “TJ protein expression (occludin and ZO-1, Western blot, Fig. 3)” value in data set [2] was “did not result in a significant decrease”. For the same molecule, the “expression of occludin (Western blot)” value in data set [2] (normalised to actin) is on record as “no effect”.

Turning to `CCCCCCCCCCCCCC(=O)N[C@@H](C)C(=O)N[C@@H](CCCNC(=N)N)C(=O)N[C@@H](CCCNC(=N)N)C(=O)N[C@@H](Cc1c[nH]c2ccccc12)C(=O)N[C@@H](CCCNC(=N)N)C(=O)O` [L-R5] (Myristoyl-ARRWR-OH), in data set [3], the in vitro cytotoxicity result is listed as “absence of cytotoxicity”.

For “occludin (from UniProt Q16625 1-522) (natural protein)”, the Kd worked out at 2160 nM in data set [4] and 617 nM in data set [5].

B1: L-R5 (myr-ARRWR), myristoylated pentapeptide (peptide)
peptide: Myristoyl-ARRWR
notes: also called L-R5 peptide; source: synthetic peptide, obtained from Bachem AG
In the data set with occludin, B1 registered a Kd of 606000 nM.

B2: occludin: tight junction protein, His-tagged recombinant, used as ligand and as labelled target in MST (protein, UniProt Q16625 1-522, looked up)
Occludin: MSSRPLESPPPYRPDEFKPNHYAPSNDIYGGEMHVRPMLSQPAYSFYPEDEILHFYKWTSPPGVIRILSMLIIVMCIAIFACVASTLAWDRGYGTSLLGGSVGYPYGGSGFGSYGSGYGYGYGYGYGYGGYTDPRAAKGFMLAMAAFCFIAALVIFVTSVIRSEMSRTRRYYLSVIIVSAILGIMVFIATIVYIMGVNPTAQSSGSLYGSQIYALCNQFYTPAATGLYVDQYLYHYCVVDPQEAIAIVLGFMIIVAFALIIFFAVKTRRKMDRYDKSNILWDKEHIYDEQPPNVEEWVKNVSAGTQDVPSPPSDYVERVDSPMAYSSNGKVNDKRFYPESSYKSTPVPEVVQELPLTSPVDDFRQPRYSSGGNFETPSKRAPAKGRAGRSKRTEQDHYETDYTTGGESCDELEEDWIREYPPITSDQQRQLYKRNFDTGLQEYKSLQSELDEINKELSRLDKELDDYREESEEYMAAADEYNRLKQVKGSADYKSKKNHCKQLKSKLSHIKKMVGDYDRQKT
modifications: His tag
notes: tight junction protein, His-tagged recombinant, used as ligand and as labelled target in MST
On to B2, for which the equilibrium dissociation constant (Kd) in data set [6] amounted to 617 nM.

Source of the values: publication PMC9618981, “Impact of peptide permeation enhancer on tight junctions opening cellular mechanisms” (Biochemistry and Biophysics Reports, 2022).
